# According to patent publication US20050144659A1, “Animals and cells containing a mutated alpha2delta gene” (priority 2003, published 2005):
# What was measured:
# [1] = tested on: R217A WT, HET and KI mice and parent strains; assay: Vogel water-lick conflict; type: in vivo, mouse; settings: for anxiolytic-like effect: R217A knockins
# Description: Albino or C57BL/6J-Tyr were also included in the experiments for comparison purposes. Male C57BL/6J (Jackson Laboratories), and 129S6/SvEV (Taconic Farms) mice were received at 8 weeks old in quantities sufficient for each study to be completed in one experiment. Parent strains were housed one week prior to testing.
# On the side of each chamber (1.5 in. above the floor) a module optical lickometer was mounted. The lickometer was used to measure licking from a drink tube attached to a water bottle mounted on the exterior of the chamber. A photo beam was piped via glass rods across a gap at the end of the drink tube. The subject's tongue breaks the beam when it drinks from the tube and each lick was automatically recorded. […] The reduced chamber space limited the animal's activity and directed behavior towards the drink tube during a 10-minute session. The front and back of the test chamber was made of clear Plexiglas. The front door was covered to reduce distractions from inside the test room. The back of the test chamber faced a wall, away from the flow of traffic in the testing room, and remained uncovered to provide the opportunity for observations. Shock was delivered between the grid floor and the drink tube using a (Coulbourn) programmable universal shocker for a duration of one second, but terminated immediately when contact between the animal and drink tube was broken.
# PROCEDURE: On day one, after 24 hours of water deprivation, experimental subjects were placed in the test chambers and allowed to drink unpunished for a 10-minute training session. Mice were required to complete a 100-150 lick criteria during the training session. […] Immediately after the day one session mice were returned to their home cages and deprived of water and food for an additional 24 hours. On test day two, mice were dosed by intraperitoneal (IP) injection with vehicle or test compound. After a 60 or 120-minute absorption period mice were placed into the test chambers for a 10-minute test session. During the test, shock was delivered on a fixed ratio (FR) 10 schedule. Therefore, after every 10th lick the subject received a mild shock. […] A low number of shock episodes accepted reflects anxiety-related behavior. Standard anxiolytic drugs produce effects that allow mice to overcome the behavioral inhibition and drink despite the shock. […] All data were analyzed using a one-way ANOVA/Dunn's Method.
# DRUGS: Pregabalin was dissolved in physiological saline for all experiments. The positive control diazepam was suspended in 2% cremophor in physiological saline.
# C57BL/6J mice were tested at 0.4 mA, C57BL/6J-Tyr mice were tested at 0.1 mA and 129S6/SvEV mice were tested at 0.6 mA. […]
# [2] = tested on: α2/δ1 R217A wild type and homozygous mice; assay: Tail Suspension Test (TST); type: in vivo, mouse; settings: R217A homozygous mutant versus wildtype mice; dosed 120 minutes prior to testing; FIG. 5
# Procedure: Male α2/δ1 R217A wild type and homozygous mice, weighing 22-35 grams, were used for testing. Animals were maintained on a 12 hour light/dark cycle with food and water available ad libitum. Animals were food deprived overnight the day before testing. On test day, animals were placed by groups of 8 into holding cages to acclimate for sixty minutes prior to dosing. Vehicle or pregabalin was administered 120 minutes prior to testing at a dose volume of 10 mL/kg. At test time, a piece of transparent tape was placed around the distal portion of the tail. The tape was then attached to a hook connected to an electro-mechanical apparatus that recorded the amount of time a mouse moved and the force used during movement. The hook was located at the top of a 24×18 cm testing chamber. Animals were completely suspended in air approximately 5 cm off the floor of the chamber for six minutes. Mean time of struggling and force of movement were then calculated for each group of eight.
# Animals are placed by groups of eight into holding cages to acclimate for thirty to sixty minutes prior to dosing. Treatments are generally administered 60 to 120 minutes prior to testing, although this also varies with specific compounds. At test time, a piece of scotch tape is placed around the distal portion of the tail. […]
# [3] = tested on: α2/δ1 R217A wild type, heterozygous, and homozygous mice; assay: Formalin foot-pad procedure (formalin-induced hyperalgesia); type: in vivo, mouse; settings: mice with arg 217 changed to alanine versus heterozygous and wildtype; PO, 120 minutes prior to testing; FIG. 4
# Procedure: Male α2/δ1 R217A wild type, heterozygous, and homozygous mice, weighing 1940 grams, were used for testing. Animals were maintained on a 12 hour light/dark cycle with food and water available ad libitum. Animals were food deprived overnight the day before testing. On test day, animals were acclimated to the observation chambers for approximately 60 min. The observation chambers were eight inch square boxes consisting of solid, acrylic plastic mirrors for the floor and 3 walls. The fourth wall was clear acrylic that allowed for observation. Animals were dosed PO with either vehicle or pregabalin, 120 minutes prior to testing at a dose volume 10 mL/kg. At test time, animals received a 25 μL injection of a 5% formalin solution in water in the plantar surface of the left hind foot. […] These behaviors were timed using a hand-held stopwatch and recorded at 5 min intervals. Data was analyzed by the two distinct phases of responding. Early phase responding included Minutes 0-10, and late phase responding included Minutes 1145. The total time spent licking by drug-treated animals in each phase was compared to the total time spent licking by vehicle-treated animals.
# FIG. 4 depicts formalin-induced hyperalgesia in R217A mutant homozygous mice in comparison to that of heterozygous and wildtype mice.
# [4] = tested on: R217A mutant lines and background mouse strains; assay: Maximal electroshock procedure (MES); type: in vivo; settings: for responsiveness to anticonvulsant effects: all background strains, mutant, heterozygous mutant and wildtype (all lines)
# Procedure: Anticonvulsant effectiveness was determined by using an electroconvulsive seizure model as described elsewhere [White et al., 1995]. Mice had free access to food and water and were housed in a temperature and light-controlled environment (12 h on/12 h off) prior to drug administration. Electroshock in mice was delivered using corneal electrodes with varied electroshock intensity. Current was delivered (60 Hz sinusoidal current, 11 to 17 mA baseline to peak vs. 50 mA for 0.2 s) using a constant-current stimulator (Wahlquist Instruments, Salt Lake City, Utah). The intensities of current necessary to produce tonic extensor seizures for each mouse strain and mutant lines in all of the mice were determined. These currents were then used for further testing of mice with pregabalin. All dose-response testing was conducted at the previously determined time of peak drug effect. Groups of 10 mice each were give various intraperitoneal doses of pregabalin dissolved in 0.9% saline, diazepam (veh) or phenyloin and given in a volume of 10 ml/kg of body weight. ED50 values (calculated dose required to inhibit the hindlimb tonic-extensor component of the maximal electroshock seizure in 50% of the animals tested) were determined by probit analysis [Litchfield, Wilcoxon], and used to compare relative potency between compounds. At least four groups of mice and each animal was employed once. The animals, pretreated with different doses of the tested drugs, were challenged with one electroshock at previously determined times of peak drug effect (pregabalin: 120 min; diazepam: 60 min; phenyloin; 60 min).
# Anticonvulsant effects of pregabalin were reduced in −/− mice as compared to the +/+mice.
# [5] = tested on: R217A knock-in and wild-type mice; assay: Chronic constriction injury (CCI)-induced static allodynia, von Frey hairs; type: in vivo, mouse; settings: sub cutaneous 30-100 mg/kg, FIG. 8
# Description: Animals were placed in an anaesthetic chamber and anaesthetised with a 2% isofluorane O2 mixture. The right hind thigh is shaved and swabbed with 1% iodine. Animals were then transferred to a homeothermic blanket for the duration of the procedure and anaesthesia maintained during surgery via a nose cone. The skin was cut along the line of the thigh bone. The common sciatic nerve was exposed at the middle of the thigh by blunt dissection through biceps femoris. Proximal to the sciatic trifurcation, about 5 mm of nerve was freed by inserting forceps under the nerve and the nerve gently lifted out of the thigh. The forceps were gently opened and closed several times to aid clearance of the fascia from the nerve. […]
# Animals were habituated to wire test cages prior to the assessment of allodynia. Static allodynia was evaluated by application of von Frey hairs (Stoelting, Wood Dale, Ill., U.S.A.) in ascending order of force ([…], 0.4, 0.6, 1.0, 1.5 and 2.0 g) to the plantar surface of hind paws. […] The lowest amount of force required to elicit a response was recorded as paw withdrawal threshold (PWT) in grams. […]
# Baseline (BL) paw withdrawal thresholds (PWT) to von Frey hairs were assessed. Following drug administration PWT were re-assessed for up to 4 h. […]
# α2/δ2 = α2/δ2 (Homo sapiens, UniProt Q9NY47); settings: background statement; cited from earlier work
# Chain of α2/δ2 (Q9NY47 19-1150): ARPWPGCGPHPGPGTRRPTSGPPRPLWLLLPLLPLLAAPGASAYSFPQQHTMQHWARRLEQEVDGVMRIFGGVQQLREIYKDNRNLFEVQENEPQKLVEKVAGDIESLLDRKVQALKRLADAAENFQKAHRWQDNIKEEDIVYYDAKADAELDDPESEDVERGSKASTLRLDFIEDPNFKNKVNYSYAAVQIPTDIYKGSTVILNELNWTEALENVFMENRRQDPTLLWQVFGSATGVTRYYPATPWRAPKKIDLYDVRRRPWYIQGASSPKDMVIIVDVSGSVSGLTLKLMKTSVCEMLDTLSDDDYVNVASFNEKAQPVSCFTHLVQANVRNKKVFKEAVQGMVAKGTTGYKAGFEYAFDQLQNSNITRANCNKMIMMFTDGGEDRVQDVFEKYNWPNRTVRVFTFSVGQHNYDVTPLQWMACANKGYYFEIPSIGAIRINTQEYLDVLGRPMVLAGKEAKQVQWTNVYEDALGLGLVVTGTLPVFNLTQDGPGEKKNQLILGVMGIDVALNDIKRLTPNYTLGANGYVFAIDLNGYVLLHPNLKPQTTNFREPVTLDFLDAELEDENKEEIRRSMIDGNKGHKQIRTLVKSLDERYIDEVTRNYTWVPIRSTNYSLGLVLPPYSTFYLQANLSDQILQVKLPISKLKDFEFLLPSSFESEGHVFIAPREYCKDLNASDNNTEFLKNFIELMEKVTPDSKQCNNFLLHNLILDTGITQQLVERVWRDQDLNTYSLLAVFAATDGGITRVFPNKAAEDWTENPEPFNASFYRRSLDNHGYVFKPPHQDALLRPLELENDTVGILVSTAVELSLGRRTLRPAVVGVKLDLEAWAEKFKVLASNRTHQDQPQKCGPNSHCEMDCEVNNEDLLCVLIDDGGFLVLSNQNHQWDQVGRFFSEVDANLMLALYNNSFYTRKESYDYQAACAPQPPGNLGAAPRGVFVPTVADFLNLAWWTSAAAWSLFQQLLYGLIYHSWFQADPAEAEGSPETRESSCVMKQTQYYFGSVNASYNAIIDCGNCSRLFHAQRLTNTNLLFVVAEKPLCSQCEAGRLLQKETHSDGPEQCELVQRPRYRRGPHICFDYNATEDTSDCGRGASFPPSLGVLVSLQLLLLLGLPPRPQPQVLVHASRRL
# Chain of α2/δ2 (Q9NY47 1002-1150 partner limits assumed): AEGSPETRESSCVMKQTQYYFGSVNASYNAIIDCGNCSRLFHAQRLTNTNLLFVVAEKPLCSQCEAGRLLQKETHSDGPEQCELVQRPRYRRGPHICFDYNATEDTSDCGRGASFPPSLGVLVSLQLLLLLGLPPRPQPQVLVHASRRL
# [6] = tested on: brain membranes from the R217A mutant mouse; assay: 3H gabapentin binding to mouse brain membranes; settings: R217A mutant mouse in comparison to wildtype mice; tracer 3H gabapentin; FIG. 3
# Procedure: Membranes were prepared from whole mouse brains. […] Total binding was determined in the absence of competitor. Non-specific binding was determined in the presence of 10 μM unlabeled pregabalin.
smiles,measurement,setting,value
CC(C)C[C@H](CN)CC(=O)O [pregabalin],increase @ 100 (punished responding),"[1]; Knockins, shock 0.7 mA, dose 100 (mg/kg IP)",non-significant
same,anxiolytic-like effect,[1],"Pregabalin did not produce a significant anxiolytic-like effect in R217A knockins, and no evidence was obtained relating phenotype to particular parent strain"
same,increase in punished licking,"[1]; knock-in mice homozygous for R217A, compared to wild-type, heterozygous or back-ground strains",does not produce a statistically significant increase
same,sedative and/or anxiolytic effect in TST,[2],exerts its sedative and/or anxiolytic effect in TST through the α2/δ1 polypeptide
same,efficacy in formalin-induced hyperalgesia (licking or biting of injected foot),[3],reduced efficacy
same,potency in protecting against seizures,"[4]; mutant mice versus wild-type, heterozygous or back-ground strains",less potent
same,anticonvulsant effects,"[4]; −/− mice as compared to +/+ mice, FIG. 9",reduced
same,sensitivity to effects in MES,"[4]; −/− mice versus +/+ mice, FIG. 9",less sensitive
same,effect on CCI-induced punctate allodynia (paw withdrawal threshold),[5]; knock-in mice,no effect
same,blockade of CCI-induced punctate allodynia (paw withdrawal threshold),[5]; wild type mice,significant blockade
"NCC1(CC(=O)O)CCCCC1 [gabapentin, 1-(aminomethyl)cyclohexaneacetic acid]",binding affinity,α2/δ2,high affinity
same,gabapentin binding to brain membranes,[6],"reduced, or greatly abolished"
CN1C(=O)CN=C(c2ccccc2)c2cc(Cl)ccc21 [diazepam],anxiolytic-like effect,[1],Diazepam (+control) failed to produce an anxiolytic-like effect in R217A knockins. Data suggests 129S6-parent strain's genotype may be responsible for pharmacological profile of diazepam
same,responsiveness to anticonvulsant effects,[4]; FIG. 9,fully responsive
O=C1NC(=O)C(c2ccccc2)(c2ccccc2)N1 [phenyloin],responsiveness to anticonvulsant effects,[4]; FIG. 9,fully responsive
